Laboratory results published in patent US20260231914A1, “BRAIN-DERIVED NEUROTROPHIC FACTOR-NANO LUCIFERASE TRANSGENIC RODENTS AND METHODS OF USE THEREOF” (University of Florida Research Foundation, Incorporated, priority 2023, published 2026).
“Also recorded” adds a separate entry of the source. Counter-ions that a name gives are not always drawn.

Assays:
[1] = test system: BDNF-NLuc; assay: NLuc activity (BDNF-NLuc levels) in cultured Bdnf^NLuc/+ neurons and media after compound treatment; assay type: cell-based, mouse
Method: We tested our assay for suitability for HTS by using two positive controls. […] The assay produces a good Z′ for both 10 mM KCl and 10 μM DM (FIGS. 4A-4C) (Zhang et al., 1999). To measure NLuc activities in cells, we can simply invert a plate to dump culture medium and then add the Promega Nano-Glo mix, whereas we must transfer a certain amount of culture medium to a new plate and then add the Promega Nano-Glo mix to measure NLuc activities in media.
Primary cortical/hippocampal cell culture and maintenance. Brains of E18.5 Bdnf^NLuc/+ embryos were collected and placed in ice-cold Ca^2+ and Mg^2+ free Hanks' balanced salt solution (HBSS) supplemented with Penicillin-Streptomycin (Pen/Strep, 50 U/mL, Gibco), 25 mM D-glucose, 1 mM pyruvate, and 20 mM HEPES. Cortices and hippocampi were isolated and digested with papain (~12 U/mL, Worthington) at 37° C. for 20 min. Brain tissues were washed with media containing Neurobasal (Gibco), 4% fetal bovine serum (FBS, HyClone), and Pen/Strep. The tissue was gently triturated and allowed to settle, and the supernatant was filtered through a 40 μm cell strainer. Cells were centrifuged at 420×g for 4 min and resuspended in plating media [Neurobasal, 2% FBS, 2% B27 (Gibco), 2 mM GlutaMAX (Gibco), and Pen/Strep]. 1.0×10^4 or 4.5×10^4 cells were plated onto white Greiner μClear 384-well plate (80 μl/well) or PDL-coated 96-well plate (200 μl/well), respectively. Sixteen hours after plating, 75% of the plating media was replaced by feeding media [Neurobasal, 2% B27, 2 mM GlutaMAX, and Pen/Strep] supplemented with 16 μM 5-fluoro-2′-deoxyuridine (FUdR) to prevent overgrowth of non-neuronal cells. Plating and media changes were performed using a Versette liquid handler (Thermo Fisher Scientific) or an 8-channel pipette for the 384-well and 96-well plates, respectively. Cells were maintained at 37° C. and 5% CO2 incubator.
(§1) Compound treatment and LOPAC library screening. Compound treatment or library screening in primary cultures of Bdnf^NLuc/+ mouse neurons on day 7 in vitro (DIV7) was performed by replacing one-quarter of the culture medium with equal volume of compound-containing medium to yield the desired final concentration for each compound. For the library of pharmacologically active compounds (LOPAC, Millipore), compounds in the original source plates were first dosed using a pintool into 384-well plates containing feeding medium to create a secondary source plate with compounds at 40 μM using the Beckman Coulter's Biomek NXP automated liquid handler (Beckman). 1.6% DMSO and 40 μM (+)-Bay K8644 (Sigma) were added to the first two and the last two columns of the secondary source plate as vehicle and positive control, respectively. Compounds in the secondary source plates were then added to culture neurons in the 384-well plates using a Versette liquid handler. Neurons were treated with compounds for 24 hours in a humidified incubator set to 37° C. and 5% CO2. Luciferase activity was detected the next day using Nano-Glo Luciferase Assay System (Promega) according to the manufacturer's instruction. Luminescence intensity was measured using a microplate reader (FLUOstar Omega, BMG LABTECH) at 460 nm.

[2] = test system: Bdnf gene expression; conditions: cited from earlier work; for Bdnf gene expression: literature reports, no concentration given
[3] = test system: Bdnf mRNA; assay: qRT-PCR of Bdnf mRNA and Bdnf mRNA variants in DIV7 Bdnf^NLuc/+ neurons; assay type: cell-based, mouse; conditions: 5 μM, 24 hours
Method: We treated DIV7 Bdnf^NLuc/+ neurons in a 24-well plate with 5 μM GR127935-HCl for 24 hours, isolated total RNA from cultured cells in each well, and ran quantitative RT-PCR (qRT-PCR) to determine levels of total Bdnf mRNA (coding), as well as four major Bdnf mRNA variants (exon 1, exon 2, exon 4, and exon 6).
qRT-PCR validation of HTS hit. DIV7 Bdnf^NLuc/+ neurons were treated in a 24-well plate with 5 μM GR127935-HCl for 24 hours, after which total RNA was isolated from cultured cells in each well and used to perform quantitative RT-PCR (qRT-PCR) to determine the levels of total Bdnf mRNA (coding), as well as four major Bdnf mRNA variants (exon 1, exon 2, exon 4, and exon 6). Levels of Bdnf mRNA variants were quantified using qRT-PCR with 18S rRNA as the internal control.

[4] = test system: BDNF-NLuc; assay: LOPAC library screening, NLuc activity in cultured Bdnf^NLuc/+ neurons (HTS); assay type: cell-based, mouse; conditions: 24 hours; for hit status in repeat screening with 4 different plates of cultured neurons (FIG. 5D): different batch of neurons; for hit: NLuc activity in neurons increased to more than 3× standard deviations over the mean: LOPAC compounds 10 μM, DIV7 neurons, FIGS. 5A-5D
Method: We tested the scalability of the Bdnf^NLuc/+ phenotypic assay by screening the 1280-compound Library of Pharmacologically Active Compounds (LOPAC). We dissected out cortices and hippocampi of 8 Bdnf^NLuc/+ embryos at E18.5 from 2 timed pregnant mice, prepared a suspension of dissociated neurons (10,000 cells/80 μl), transferred 40 ml of the suspension into each of eight 50-ml Falcon centrifuge tubes, used the liquid handling device to plate cells from each aliquot of 40-ml cell suspension onto a 384-well plate (80 μl/well), and cultured neurons.
Using 2 sets of 4 plates each of DIV7 neuronal cultures, we removed 20 μl of medium from each well and then added each LOPAC compound in 20 μl of fresh medium to a well to reach a final concentration of 10 μM. LOPAC compounds (320) were added to wells in the middle 20 columns of each plate, while the first 2 and last 2 columns were used for vehicle controls and positive controls. After 24 hours of incubation, we inverted plates to dump culture medium and then measured NLuc activity in neurons. The NLuc activity in each well is normalized to the average of NLuc activities in 1280 compound-containing wells. […] Compounds that increased the NLuc activity to more than 3× standard deviations (3×SDs) over the mean were considered a hit, and in this case, there are 7 hits in the first set of plates (FIG. 5A) and 10 hits in the second set of plates (FIG. 5B), 7 of which are shared. When the average of duplicate assays for each compound is plotted, we identify the same hits from the second set of plates, with the exception of hit 8 (FIG. 5C). To test the repeatability of the assay in different batches of cultured neurons, we repeated the screening with 4 different plates of cultured neurons.
as §1

[5] = test system: protein transport from the ER to the Golgi complex; conditions: Helms and Rothman, 1992; cited from earlier work
[6] = DM 2-10 μM added DIV7, measured DIV8, listed as DM
[7] = KCl 10 mM added DIV7, measured DIV8 (24 hours)

| Structure (SMILES) | Bdnf gene expression [2] | hit status in repeat screening with 4 different plates of cultured neurons (FIG. 5D) ([4]; 10 μM) | hit: NLuc activity in neurons increased to more than 3× standard deviations over the mean [4] | other results |
| --- | --- | --- | --- | --- |
| CC1(C)[C@H](C(=O)O[C@H](C#N)c2cccc(Oc3ccccc3)c2)[C@@H]1C=C(Br)Br [deltamethrin] | stimulate Bdnf gene expression |  |  | levels of BDNF-NLuc in media (NLuc activity) [1, 6]: stimulated BDNF production; also recorded: increased; levels of BDNF-NLuc in neurons (NLuc activity) [1, 6]: stimulated BDNF production; also recorded: increased |
| COc1ccc(NC(=O)c2ccc(-c3ccc(-c4noc(C)n4)cc3C)cc2)cc1N1CCN(C)CC1 [GR127935-HCl] |  | rediscovered | above dotted line | Bdnf mRNA variant exon 1 [3]: stimulating transcription; Bdnf mRNA variant exon 2 [3]: stimulating transcription; Bdnf mRNA variant exon 4 [3]: stimulating transcription; total Bdnf mRNA (coding) levels ([3]; 18S rRNA internal control): elevated Bdnf mRNA levels; hit: NLuc activity in neurons increased to more than 3× standard deviations over the mean ([4]; listed as GR127935 hydrochloride hydrate): hits |
| COc1ccc(-c2ccc(=N)n(CCCC(=O)O)n2)cc1 [gabazine] |  |  | above dotted line | hit status on the average of duplicate assays (FIG. 5C) ([4]; 10 μM, average of 2 sets of plates): exception |
| CCCc1c(-c2ccc(O)cc2)nn(-c2ccc(O)cc2)c1-c1ccc(O)cc1 [1,3,5-Tris(4-hydroxyphenyl)-4-propyl-1H-pyrazole] |  | rediscovered | above dotted line | hit: NLuc activity in neurons increased to more than 3× standard deviations over the mean ([4]; listed as PPT): hits |
| [Cl-].[K+] [KCl] | stimulates Bdnf gene expression |  |  | levels of BDNF-NLuc in media (NLuc activity) [1, 7]: elevated; also recorded: increased; levels of BDNF-NLuc in neurons (NLuc activity) [1, 7]: elevated; also recorded: increased; Bdnf gene expression in cultured neurons ([2]; KCl 50 mM for 90 min (Ghosh et al., 1994; Tao et al., 2002)): increases Bdnf gene expression |
| C[C@H]1CCC/C=C/[C@@H]2C[C@H](O)C[C@H]2[C@H](O)/C=C/C(=O)O1 [brefeldin A] |  | rediscovered | hits and above dotted line | protein transport from the ER to the Golgi complex [5]: inhibit protein transport from the ER to the Golgi complex |
| C#CCN1C(C)=C(C(=O)OC)C(c2cccc([N+](=O)[O-])c2)C(C(=O)OCC)=C1C (stereo not shown) [N-propargyl nitrendipine] |  |  | hits and above dotted line |  |
| CCC(C)N(C)C(=O)c1cc2ccccc2c(-c2ccccc2Cl)n1 (stereo not shown) [PK11195] |  |  | above dotted line |  |
| COC(=O)C1=C(C)NC(C)=C([N+](=O)[O-])C1c1ccccc1C(F)(F)F (stereo not shown) [Bay K8644] | stimulates Bdnf gene expression | rediscovered | hits and above dotted line | BDNF levels (NLuc activity) ([1]; Bay K8644 10 μM, DIV7, 24 hours, 3 batches of cultured neurons): increased BDNF levels |
| CCCCCCCCCCCCCC(=O)O[C@@H]1[C@@H](C)[C@@]2(O)[C@@H](C=C(CO)C[C@]3(O)C(=O)C(C)=C[C@@H]23)[C@@H]2C(C)(C)[C@]12OC(C)=O [phorbol-12-myristate 13-acetate] |  | just under the threshold | hits and above dotted line | effect on Bay K8644-induced Bdnf gene expression ([2]; Zafra et al., 1992): enhance the effect of Bay K8644 on Bdnf gene expression |
